Values joined by “and” are separate entries in the source; they are usually repeats but may differ in a detail not shown here. Equal entries are not always repeated.
Experiments:
[1] = test system: HSV-1; assay: Virucidal activity, CPE inhibition assay (HSV-1 pretreated with compounds); format: cell-based, HSV-1 strain L2; settings: for virucidal activity against HSV-1 (in words) / IC50: CPE assay; for virucidal activity against HSV-1 (in words): virus pretreated with compound; for SI: ratio of CC50 to IC50, virucidal scheme; for IC50: Human alphaherpesvirus 1, virus pretreated with compound (virucidal), Vero cells, 100 TCID50/mL
Description: The antiviral activity of polyphenols from M. amurensis against HSV-1 was assessed using the cytopathic effect inhibition (CPE) assay. To study the inhibitory effect of polyphenolic compounds directly on the HSV-1 virus (direct virucidal activity), the monolayer of Vero cells grown on 96-well plates (1 × 10^4 cells/well) was infected with the virus (100 TCD50/mL), pretreated with different concentrations of polyphenolic compounds.
(§1) The HSV-1 strain L2 obtained from N.F. Gamaleya Federal Research Centre for Epidemiology and Microbiology (Moscow, Russia) was grown in Vero cells as previously described.
(§2) We determined the direct inhibitory effect of polyphenolic compounds from M. amurensis heartwood on HSV-1 (virucidal effect). We mixed the virus at an infectious dose (100 TCID50/mL) with polyphenolic compounds (from 0.1 to 100 µg/mL) at a ratio of 1:1 (v/v) and incubated for an hour at 37 °C. Then, we infected the monolayer of Vero cells grown on 96-well plates (1 × 10^4 cells/well) with HSV-1 pretreated with the studied compounds. After 1 h adsorption at 37 °C, the cells were washed with phosphate-buffered saline (PBS) and overlaid by the maintenance medium with 1% FBS. The plates were incubated for 72 h at 37 °C in a CO2-incubator. The cytopathic effect (CPE) inhibition assay and real-time reverse transcription-PCR (RT-PCR) assay were used to evaluate virucidal effect of the tested compounds.
We previously described this method in detail in [22]. We performed the MTT assay to evaluate the antiviral activity of polyphenolic compounds. The viral inhibition rate (IR, %) was calculated according to Equation (1):(1) IR, %=Atv−Acv/Acd−Acv×100, where Atv is the absorbance of cells infected with HSV-1 pretreated with the studied compounds,
We calculated the selectivity index (SI) as the ratio of CC50 to IC50. Experiments were repeated three times.

[2] = test system: HSV-1; assay: Virucidal activity, RT-PCR assay (HSV-1 pretreated with compounds); format: cell-based, HSV-1 strain L2; settings: for virucidal activity against HSV-1 by RT-PCR (in words): 0.1, 1 and 10 µg/mL; for Ct: 72 h; for log10: log10 of 2^−ΔCt; for 2^−ΔCt: relative level of viral DNA vs virus control; for −ΔCt: vs virus control; for activity at 0.1 µg/mL / activity at 1 µg/mL / activity at 10 µg/mL / log reduction at 0.1 µg/mL / log reduction at 1 µg/mL / log reduction at 10 µg/mL: Human alphaherpesvirus 1, 72 h; for activity at 0.1 µg/mL / activity at 1 µg/mL / activity at 10 µg/mL: read-out: 2^−ΔCt; for log reduction at 0.1 µg/mL / log reduction at 1 µg/mL / log reduction at 10 µg/mL: read-out: log10
Description: Vero cells grown on 96-well plates were infected with the virus (100 TCID50/mL), pretreated with polyphenolic compounds at concentrations 0.1, 1 and 10 μg/mL. After 72 h of cell incubation, viral DNA was extracted from the supernatants, and the relative level of HSV-1 DNA was determined using RT-PCR. The effect of polyphenols on the relative level of viral DNA was assessed using the 2^−∆Ct method and reported as fold reduction compared to virus control.
as §1, §2
We performed the RT-PCR assay as we previously described in detail in [22]. Briefly, HSV-1 DNA was extracted after incubation from cell supernatants by using the DNA-sorb-AM (K1-12-100-CE) nucleic acid extraction kit (AmpliSens®, Moscow, Russia) according to the manufacturer′s instructions. We treated the supernatants with a lysis solution that contained guanidine chloride (chaotropic agent) in the presence of sorbent (silica particles). As the elution solution was added, the DNA was […] silica particles and separated from the sorbent particles by centrifugation.
We detected the DNA of HSV-1 in the obtained samples using the AmpliSens® HSV I, II-FRT-100F PCR kit (AmpliSens®, Moscow, Russia) on a real-time PCR instrument Rotor-Gene Q (Qiagen, Hilden, Nordrhein-Westfalen, Germany) according to the manufacturer′s instructions. The PCR reaction conditions were the following: initial denaturation at 95 °C for 15 min; then 5 cycles at 95 °C for 5 s, at 60 °C for 20 s, at 72 °C for 15 s; then 40 cycles at 95 °C for 5 s, at 60 °C for 20 s, and at 72 °C for 15 s. A negative sample was used as the amplification control for each run. The threshold cycle number Ct, was measured as the PCR cycle, where the amount of the amplified target reached the threshold value; the Ct values ≥ 37 indicated the absence of the HSV-1 DNA in the samples. We assessed the anti-HSV-1 activity of the studied compounds by the reduction in the viral DNA levels using the 2^−ΔCt method according to Equation (2):(2) ΔCt=Ctcv−Cttv where Ct is the threshold cycle number measured as the PCR cycle, where the amount of the amplified target reached the threshold value, […]

[3] = test system: 6-OHDA-treated Neuro-2a cells; assay: 6-OHDA-induced neurotoxicity model, cell viability test (MTT); format: cell-based, murine; settings: 6-OHDA 100 µM
Description: Neuro-2a cells were incubated with the studied polyphenolic compounds for 1 h. Then, 100 µM of 6-hydroxydopamine 6-OHDA were added. We determined the percentage of living Neuro-2a cells after treatment with 6-OHDA (Figure 4a–d).
Figure 4 The effect of polyphenolic compounds isolated from M. amurensis heartwood on the viability of Neuro-2a cells treated with 6-OHDA (100 μM) (a–d). The viability of Neuro-2a cells treated with various compounds and 6-OHDA was measured by the MTT assay. Polyphenolic compounds isolated from M. amurensis heartwood were used at concentrations 10, 1, 0.1 μM. The data are presented as means ± SEM of three independent replicates. (*) indicate p < 0.05 versus 6-OHDA-treated cells.
After 24 h of adhesion, Neuro-2a cells (5 × 10^4 cells/mL) were treated with polyphenolic compounds at concentrations of 0.1, 1 and 10 μM for 1 h. Then, 100 µM of 6-OHDA or 1 mM of PQ (Sigma-Aldrich, St. Louis, MO, USA) were added. Cells incubated without inductors or with inductors were used as positive and negative control, respectively. Cell viability was measured after 24 h using the MTT assay.

[4] = test system: 6-OHDA-treated Neuro-2a cells; assay: Mitochondrial membrane potential detection (TMRM) in 6-OHDA-treated cells; format: cell-based, murine; settings: for increase of mitochondrial membrane potential: compound 10 µM, 6-OHDA 120 µM, TMRM
Description: We determined the effect of polyphenolic compounds from M. amurensis on 6-OHDA-induced mitochondrial dysfunction in Neuro-2a cells (Figure 6a,b).
Figure 6 The effect of polyphenolic compounds isolated from M. amurensis heartwood on mitochondrial membrane potential in Neuro-2a cells treated with 6-OHDA (120 μM) (a,b). Polyphenolic compounds isolated from M. amurensis heartwood were used at concentrations 10, 1, 0.1 μM. The data are presented as means ± SEM of three independent replicates. (*) and (***) indicate, respectively, p < 0.05 and p < 0.001 versus 6-OHDA-treated cells.
The cells were incubated for 1 h in a 96-well plate (1 × 10^4 cells/well) with polyphenolic compounds (0.1, 1 and 10 µM). Then, 6-OHDA (120 µM) was added, and cell suspension was incubated for 1 h. Cells incubated without 6-OHDA and compounds and with 6-OHDA alone were used as positive and negative control, respectively. The tetramethylrhodamine methyl (TMRM) (Sigma-Aldrich, St. Louis, MO, USA) solution (500 nM) was added to each well and cells were incubated for 30 min at 37 °C. The intensity of fluorescence was measured using a PHERAstar FSplate reader (BMG Labtech, Ortenberg, Germany) at λex = 540 nm and λem = 590 nm. The data were processed by MARS Data Analysis v. 3.01R2 (BMG Labtech, Ortenberg, Germany).

[5] = test system: 6-OHDA-treated Neuro-2a cells; assay: Apoptosis profile by flow cytometry (Annexin V & Dead Cell Kit); format: cell-based, murine; settings: Table 1; polyphenols 10 µM, 6-OHDA 100 µM, 24 h; mean
Description: We investigated the effect of polyphenolic compounds from M. amurensis on apoptosis profile in 6-OHDA-treated Neuro-2a cells by flow cytometry using fluorescent annexin V conjugate as a fluorescent dye. We observed significant changes in apoptosis profile in Neuro-2a cells after 6-OHDA-treatment. […] Polyphenols 3, 6 and 13 diminished the neurotoxic effect of 6-OHDA-treatment.
The cells were incubated for 1 h in a 6-well plate (5 × 10^4 cells/mL) with polyphenolic compounds (10 µM). Then, 6-OHDA (100 µM) was added, and cell suspension was incubated for 24 h. After incubation, the maintenance media was collected, and the cells were washed by cold PBS twice and incubated with trypsin-EDTA solution. The cell suspension was washed with cold PBS twice again, centrifugated and then used for apoptosis detection by Muse® Annexin V & Dead Cell Kit in accordance with the manufacturer’s instructions (Luminex, Austin, TX, USA). The fluorescence was measured with Muse® Cell Analyzer (Luminex, Austin, TX, USA) and the data were processed by Muse 1.5 Analysis software (Luminex, Austin, TX, USA).

COc1c(O)cc2occ(-c3ccc(O)cc3)c(=O)c2c1O [Compound 5, tectorigenin]
virucidal activity against HSV-1 (in words) [1]: did not show virucidal activity
virucidal activity against HSV-1 by RT-PCR (in words) [2]: did not demonstrate virucidal activity
effect on viability of 6-OHDA-treated Neuro-2a cells (in words) ([3]; compounds at 10, 1, 0.1 µM): weak effect on cell viability

COc1ccc(C2(O)COc3cc(O)ccc3C2=O)c(O)c1 (racemic) [Compound 12, (±)-3-hydroxyvestitone]
virucidal activity against HSV-1 (in words) [1]: did not show virucidal activity
virucidal activity against HSV-1 by RT-PCR (in words) [2]: did not demonstrate virucidal activity
effect on viability of 6-OHDA-treated Neuro-2a cells (in words) ([3]; compound 1 µM): increased the viability

medicarpin [Compound 7]
SI [1]: 2.1 ± 0.3
Ct ([2]; 0.1 µg/mL): 18.1 ± 2.2
log10 ([2]; 0.1 µg/mL): 0
2^−ΔCt ([2]; 0.1 µg/mL): 1.0
−ΔCt ([2]; 0.1 µg/mL): 0
Ct ([2]; 1 µg/mL): 18.3 ± 2.2
log10 ([2]; 1 µg/mL): −0.060 ± 0.008
2^−ΔCt ([2]; 1 µg/mL): 0.870 ± 0.11
−ΔCt ([2]; 1 µg/mL): −0.20 ± 0.02
anti-HSV-1 activity by RT-PCR (in words) ([2]; 10 µg/mL): moderate anti-HSV-1 activity
Ct ([2]; 10 µg/mL): 19.8 ± 2.4
log10 ([2]; 10 µg/mL): −0.50 ± 0.06
2^−ΔCt ([2]; 10 µg/mL): 0.297 ± 0.04
−ΔCt ([2]; 10 µg/mL): −1.75 ± 0.20
increase of mitochondrial membrane potential [4]: 8–12%
effect on viability of 6-OHDA-treated Neuro-2a cells (in words) ([3]; compounds at 10, 1, 0.1 µM): weak effect on cell viability

O=c1c(-c2ccc(O)cc2)coc2cc(O)cc(O)c12 [Compound 2, genistein]
IC50 [1]: 16.7 µg/mL and 61.9 µM
Ct ([2]; 0.1 µg/mL): 18.1 ± 2.2
−ΔCt ([2]; 0.1 µg/mL): 0
Ct ([2]; 1 µg/mL): 18.4 ± 2.4
−ΔCt ([2]; 1 µg/mL): −0.30 ± 0.03
anti-HSV-1 activity by RT-PCR (in words) ([2]; 10 µg/mL): moderate anti-HSV-1 activity
Ct ([2]; 10 µg/mL): 22.4 ± 2.4
−ΔCt ([2]; 10 µg/mL): −4.3 ± 0.5
activity at 0.1 µg/mL [2]: 100%
activity at 1 µg/mL [2]: 81.2 ± 11%
activity at 10 µg/mL [2]: 5.08 ± 0.61%
log reduction at 0.1 µg/mL [2]: 0
log reduction at 1 µg/mL [2]: 0.09 ± 0.01
log reduction at 10 µg/mL [2]: 1.3 ± 0.2

Oc1cc(O)cc(/C=C/c2ccc(O)c(O)c2)c1 [Compound 11, piceatannol]
IC50 [1]: 6.7 µg/mL and 27.4 µM
SI [1]: 37.3 ± 5.2
Ct ([2]; 0.1 µg/mL): 18.4 ± 2.4
−ΔCt ([2]; 0.1 µg/mL): −0.30 ± 0.03
inhibition of HSV-1 replication by RT-PCR (in words) ([2]; 1 µg/mL): inhibited the replication of HSV-1
Ct ([2]; 1 µg/mL): 24.5 ± 3.4
−ΔCt ([2]; 1 µg/mL): −6.4 ± 0.8
anti-HSV-1 activity by RT-PCR (in words) ([2]; 10 µg/mL): significantly reduced the level of viral DNA
Ct ([2]; 10 µg/mL): 30.2 ± 3.9
−ΔCt ([2]; 10 µg/mL): −12.1 ± 1.4
activity at 0.1 µg/mL [2]: 81.2 ± 11%
activity at 1 µg/mL [2]: 1.18 ± 0.15%
activity at 10 µg/mL [2]: 0.0228 ± 0.03%
log reduction at 0.1 µg/mL [2]: 0.09 ± 0.01
log reduction at 1 µg/mL [2]: 1.9 ± 0.2
log reduction at 10 µg/mL [2]: 3.6 ± 0.5
increase of mitochondrial membrane potential [4]: 8–12%
effect on viability of 6-OHDA-treated Neuro-2a cells (in words) ([3]; compounds at 10, 1, 0.1 µM): weak effect on cell viability

COc1ccc(-c2coc3cc(O)ccc3c2=O)cc1 [Compound 8, formononetin]
virucidal activity against HSV-1 (in words) [1]: did not show virucidal activity
virucidal activity against HSV-1 by RT-PCR (in words) [2]: did not demonstrate virucidal activity
effect on viability of 6-OHDA-treated Neuro-2a cells (in words) ([3]; compound 1 µM): increased the viability
effect on viability of 6-OHDA-treated Neuro-2a cells (in words) ([3]; compounds at 10, 1, 0.1 µM): weak effect on cell viability

NCCc1cc(O)c(O)cc1O [Compound 6-OHDA, 6-hydroxydopamine, reference compound]
decrease of TMRM fluorescence after treatment of Neuro-2a cells with 6-OHDA ([4]; 6-OHDA alone): 14%
Dead [5]: 1.11 ± 0.37%
Early apop. [5]: 42.62% and 42.62 ± 2.3%
Late apop./Dead [5]: 12.15% and 12.15 ± 1.34%
Live [5]: 44.14 ± 1.34%

Source: article PMC11050087, “Polyphenols from Maackia amurensis Heartwood Protect Neuronal Cells from Oxidative Stress and Prevent Herpetic Infection” (International Journal of Molecular Sciences, 2024)
